Measured values reported in ChEMBL document CHEMBL4028801, “A multifactorial approach to hepatobiliary transporter assessment enables improved therapeutic compound development” (Toxicol Sci, 2013).
pIC50: −log10 of the molar value. Blank lines part the entries; values can stand above or below the compound they belong to.

How the values were obtained:
[1] = AUC in human at 100 to 200 mg, po QD after 24 hrs; type: ADME, organism-based; conditions: in vivo
[2] = Ratio of drug concentration at steady state in human at 100 to 200 mg, po QD after 24 hrs to IC50 for human BSEP overexpressed in Sf9 insect cells; type: ADME, organism-based; conditions: in vivo
[3] = Drug concentration at steady state in human at 100 to 200 mg, po QD after 24 hrs; type: ADME, organism-based; conditions: in vivo, read-out: Css
[4] = Ratio of drug concentration at steady state in human at 100 to 200 mg, po QD after 24 hrs to IC50 for human MRP4 overexpressed in Sf9 insect cells; type: ADME, organism-based; conditions: in vivo
[5] = target: ATP-binding cassette sub-family C member 2 (Homo sapiens, UniProt Q92887); experiment: Inhibition of human MRP2 overexpressed in Sf9 cell membrane vesicles assessed as uptake of [3H]-estradiol-17beta-D-glucuronide in presence of ATP and GSH measured after 20 mins by membrane vesicle transport assay
[6] = Ratio of drug concentration at steady state in human at 100 to 200 mg, po QD after 24 hrs to IC50 for human MRP2 overexpressed in Sf9 insect cells; type: ADME, organism-based; conditions: in vivo
[7] = target: ATP-binding cassette sub-family C member 3 (Homo sapiens, UniProt O15438); experiment: Inhibition of human MRP3 overexpressed in Sf9 insect cell membrane vesicles assessed as uptake of [3H]-estradiol-17beta-D-glucuronide in presence of ATP and GSH measured after 10 mins by membrane vesicle transport assay; type: ADME, cell-based
[8] = target: T1, ATP-binding cassette sub-family C member 4 (Homo sapiens, UniProt O15439); experiment: Inhibition of human MRP4 overexpressed in Sf9 cell membrane vesicles assessed as uptake of [3H]-estradiol-17beta-D-glucuronide in presence of ATP and GSH measured after 20 mins by membrane vesicle transport assay; type: ADME, cell-based
T1 sequence (O15439 whole entry): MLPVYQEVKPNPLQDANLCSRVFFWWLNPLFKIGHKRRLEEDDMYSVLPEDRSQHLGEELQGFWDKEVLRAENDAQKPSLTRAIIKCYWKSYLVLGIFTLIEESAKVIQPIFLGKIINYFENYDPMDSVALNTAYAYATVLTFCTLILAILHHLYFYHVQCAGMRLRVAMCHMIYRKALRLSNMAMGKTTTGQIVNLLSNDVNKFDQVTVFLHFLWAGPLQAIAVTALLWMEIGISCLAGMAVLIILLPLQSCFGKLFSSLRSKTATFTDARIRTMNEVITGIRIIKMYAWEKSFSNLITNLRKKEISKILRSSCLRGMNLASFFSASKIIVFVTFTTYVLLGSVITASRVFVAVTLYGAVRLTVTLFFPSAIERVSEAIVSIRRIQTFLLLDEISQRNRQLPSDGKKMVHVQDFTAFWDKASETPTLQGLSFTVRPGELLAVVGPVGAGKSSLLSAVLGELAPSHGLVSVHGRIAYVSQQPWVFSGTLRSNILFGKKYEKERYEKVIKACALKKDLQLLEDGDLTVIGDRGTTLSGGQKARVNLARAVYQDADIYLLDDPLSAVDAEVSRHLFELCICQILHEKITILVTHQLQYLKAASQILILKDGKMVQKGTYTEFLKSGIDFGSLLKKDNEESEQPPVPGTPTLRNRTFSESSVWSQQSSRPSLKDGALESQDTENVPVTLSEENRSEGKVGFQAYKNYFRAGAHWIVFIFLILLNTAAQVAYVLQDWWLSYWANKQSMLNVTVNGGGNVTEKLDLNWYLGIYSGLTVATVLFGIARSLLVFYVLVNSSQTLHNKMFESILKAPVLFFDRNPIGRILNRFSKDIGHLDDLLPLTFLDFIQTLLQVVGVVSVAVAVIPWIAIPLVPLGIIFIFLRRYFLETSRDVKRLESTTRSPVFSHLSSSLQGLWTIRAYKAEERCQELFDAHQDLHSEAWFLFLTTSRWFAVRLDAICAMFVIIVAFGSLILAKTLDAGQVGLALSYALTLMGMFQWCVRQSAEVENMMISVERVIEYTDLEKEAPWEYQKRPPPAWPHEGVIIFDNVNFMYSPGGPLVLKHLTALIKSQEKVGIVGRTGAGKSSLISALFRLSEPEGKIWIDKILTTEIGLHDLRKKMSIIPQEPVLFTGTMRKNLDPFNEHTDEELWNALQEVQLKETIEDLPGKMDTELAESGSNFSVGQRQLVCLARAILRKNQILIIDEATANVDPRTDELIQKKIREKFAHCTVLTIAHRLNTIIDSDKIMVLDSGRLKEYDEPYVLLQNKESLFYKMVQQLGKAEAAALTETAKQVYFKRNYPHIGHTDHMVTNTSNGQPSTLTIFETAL

[9] = Drug concentration at steady state in human at 1200 mg administered orally BID up to 2800 mg/day after 12 hrs; type: ADME; conditions: in vivo, po, read-out: Css
[10] = AUC in human at 1200 mg administered orally BID up to 2800 mg/day after 12 hrs; type: ADME; design: time < 12 hr, dose 1200 mg, route oral; conditions: in vivo, po
[11] = Ratio of drug concentration at steady state in human at 1200 mg administered orally BID up to 2800 mg/day after 12 hrs to IC50 for human BSEP overexpressed in Sf9 insect cells; type: ADME; conditions: in vivo, po
[12] = target: Bile salt export pump (Homo sapiens, UniProt O95342); experiment: Inhibition of human BSEP overexpressed in Sf9 cell membrane vesicles assessed as uptake of [3H]-taurocholate in presence of ATP measured after 15 to 20 mins by membrane vesicle transport assay; type: ADME, cell-based
[13] = Ratio of drug concentration at steady state in human at 150 to 600 mg, iv QD after 24 hrs to IC50 for human MRP3 overexpressed in Sf9 insect cells; type: ADME, organism-based; conditions: in vivo
[14] = AUC in human at 150 to 600 mg, iv QD after 24 hrs; type: ADME, organism-based; conditions: in vivo
[15] = Ratio of drug concentration at steady state in human at 150 to 600 mg, iv QD after 24 hrs to IC50 for human MRP2 overexpressed in Sf9 insect cells; type: ADME, organism-based; conditions: in vivo
[16] = Ratio of drug concentration at steady state in human at 150 to 600 mg, iv QD after 24 hrs to IC50 for human BSEP overexpressed in Sf9 insect cells; type: ADME, organism-based; conditions: in vivo
[17] = Drug concentration at steady state in human at 150 to 600 mg, iv QD after 24 hrs; type: ADME, organism-based; conditions: in vivo, read-out: Css
[18] = Ratio of drug concentration at steady state in human at 150 to 600 mg, iv QD after 24 hrs to IC50 for human MRP4 overexpressed in Sf9 insect cells; type: ADME, organism-based; conditions: in vivo
[19] = Ratio of drug concentration at steady state in human at 62.5 to 125 mg, po BID after 12 hrs to IC50 for human MRP3 overexpressed in Sf9 insect cells; type: ADME, organism-based; conditions: in vivo
[20] = AUC in human at 62.5 to 125 mg, po BID after 12 hrs; type: ADME, organism-based; conditions: in vivo
[21] = tested on: Homo sapiens; experiment: Drug concentration at steady state in human at 62.5 to 125 mg, po BID after 12 hrs; type: ADME, organism-based; conditions: in vivo
[22] = Ratio of drug concentration at steady state in human at 62.5 to 125 mg, po BID after 12 hrs to IC50 for human BSEP overexpressed in Sf9 insect cells; type: ADME, organism-based; conditions: in vivo
[23] = Ratio of drug concentration at steady state in human at 62.5 to 125 mg, po BID after 12 hrs to IC50 for human MRP4 overexpressed in Sf9 insect cells; type: ADME, organism-based; conditions: in vivo
[24] = AUC in human at 300 mg, po QD after 24 hrs; type: ADME, organism-based; design: time < 24 hr, dose 300 mg, route oral; conditions: in vivo
[25] = Drug concentration at steady state in human at 300 mg, po QD after 24 hrs; type: ADME, organism-based; conditions: in vivo, read-out: Css
[26] = Ratio of drug concentration at steady state in human at 300 mg, po QD after 24 hrs to IC50 for human MRP4 overexpressed in Sf9 insect cells; type: ADME, organism-based; conditions: in vivo
[27] = Ratio of drug concentration at steady state in human at 300 mg, po QD after 24 hrs to IC50 for human BSEP overexpressed in Sf9 insect cells; type: ADME, organism-based; conditions: in vivo

Sequence of Bile salt export pump (O95342 whole entry): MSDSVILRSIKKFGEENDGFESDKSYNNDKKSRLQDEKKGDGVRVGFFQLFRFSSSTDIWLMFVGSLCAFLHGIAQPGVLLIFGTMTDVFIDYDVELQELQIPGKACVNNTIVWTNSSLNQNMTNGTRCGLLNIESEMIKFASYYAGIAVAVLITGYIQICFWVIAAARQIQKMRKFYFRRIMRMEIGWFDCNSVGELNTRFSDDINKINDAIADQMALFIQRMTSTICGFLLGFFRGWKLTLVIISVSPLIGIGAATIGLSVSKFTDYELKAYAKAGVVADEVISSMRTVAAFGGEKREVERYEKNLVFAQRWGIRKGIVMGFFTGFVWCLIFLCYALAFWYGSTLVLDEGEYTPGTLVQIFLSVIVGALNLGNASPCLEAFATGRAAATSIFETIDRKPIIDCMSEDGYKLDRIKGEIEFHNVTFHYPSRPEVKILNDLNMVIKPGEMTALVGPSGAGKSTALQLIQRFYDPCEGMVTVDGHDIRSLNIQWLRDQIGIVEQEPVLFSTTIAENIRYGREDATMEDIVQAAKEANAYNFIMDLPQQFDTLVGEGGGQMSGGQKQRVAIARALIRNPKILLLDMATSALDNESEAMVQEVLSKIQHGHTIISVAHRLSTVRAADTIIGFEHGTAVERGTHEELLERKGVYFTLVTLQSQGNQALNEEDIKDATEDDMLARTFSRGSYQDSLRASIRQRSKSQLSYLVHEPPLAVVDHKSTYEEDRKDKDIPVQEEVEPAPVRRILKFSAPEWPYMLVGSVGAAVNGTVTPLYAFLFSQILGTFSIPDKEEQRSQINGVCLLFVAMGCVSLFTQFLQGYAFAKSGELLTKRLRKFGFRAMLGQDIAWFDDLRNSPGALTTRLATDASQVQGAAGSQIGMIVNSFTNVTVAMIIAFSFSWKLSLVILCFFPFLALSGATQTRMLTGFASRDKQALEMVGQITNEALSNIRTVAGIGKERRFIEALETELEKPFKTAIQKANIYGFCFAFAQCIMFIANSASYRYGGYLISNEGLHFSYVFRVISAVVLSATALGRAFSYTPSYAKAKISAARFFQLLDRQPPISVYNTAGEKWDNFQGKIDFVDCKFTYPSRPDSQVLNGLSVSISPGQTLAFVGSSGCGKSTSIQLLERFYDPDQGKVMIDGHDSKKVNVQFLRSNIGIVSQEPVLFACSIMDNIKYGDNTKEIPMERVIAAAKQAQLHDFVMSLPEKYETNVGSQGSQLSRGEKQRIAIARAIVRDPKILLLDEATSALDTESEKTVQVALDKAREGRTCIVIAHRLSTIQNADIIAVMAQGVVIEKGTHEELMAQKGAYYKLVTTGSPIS
Sequence of ATP-binding cassette sub-family C member 3 (O15438 whole entry): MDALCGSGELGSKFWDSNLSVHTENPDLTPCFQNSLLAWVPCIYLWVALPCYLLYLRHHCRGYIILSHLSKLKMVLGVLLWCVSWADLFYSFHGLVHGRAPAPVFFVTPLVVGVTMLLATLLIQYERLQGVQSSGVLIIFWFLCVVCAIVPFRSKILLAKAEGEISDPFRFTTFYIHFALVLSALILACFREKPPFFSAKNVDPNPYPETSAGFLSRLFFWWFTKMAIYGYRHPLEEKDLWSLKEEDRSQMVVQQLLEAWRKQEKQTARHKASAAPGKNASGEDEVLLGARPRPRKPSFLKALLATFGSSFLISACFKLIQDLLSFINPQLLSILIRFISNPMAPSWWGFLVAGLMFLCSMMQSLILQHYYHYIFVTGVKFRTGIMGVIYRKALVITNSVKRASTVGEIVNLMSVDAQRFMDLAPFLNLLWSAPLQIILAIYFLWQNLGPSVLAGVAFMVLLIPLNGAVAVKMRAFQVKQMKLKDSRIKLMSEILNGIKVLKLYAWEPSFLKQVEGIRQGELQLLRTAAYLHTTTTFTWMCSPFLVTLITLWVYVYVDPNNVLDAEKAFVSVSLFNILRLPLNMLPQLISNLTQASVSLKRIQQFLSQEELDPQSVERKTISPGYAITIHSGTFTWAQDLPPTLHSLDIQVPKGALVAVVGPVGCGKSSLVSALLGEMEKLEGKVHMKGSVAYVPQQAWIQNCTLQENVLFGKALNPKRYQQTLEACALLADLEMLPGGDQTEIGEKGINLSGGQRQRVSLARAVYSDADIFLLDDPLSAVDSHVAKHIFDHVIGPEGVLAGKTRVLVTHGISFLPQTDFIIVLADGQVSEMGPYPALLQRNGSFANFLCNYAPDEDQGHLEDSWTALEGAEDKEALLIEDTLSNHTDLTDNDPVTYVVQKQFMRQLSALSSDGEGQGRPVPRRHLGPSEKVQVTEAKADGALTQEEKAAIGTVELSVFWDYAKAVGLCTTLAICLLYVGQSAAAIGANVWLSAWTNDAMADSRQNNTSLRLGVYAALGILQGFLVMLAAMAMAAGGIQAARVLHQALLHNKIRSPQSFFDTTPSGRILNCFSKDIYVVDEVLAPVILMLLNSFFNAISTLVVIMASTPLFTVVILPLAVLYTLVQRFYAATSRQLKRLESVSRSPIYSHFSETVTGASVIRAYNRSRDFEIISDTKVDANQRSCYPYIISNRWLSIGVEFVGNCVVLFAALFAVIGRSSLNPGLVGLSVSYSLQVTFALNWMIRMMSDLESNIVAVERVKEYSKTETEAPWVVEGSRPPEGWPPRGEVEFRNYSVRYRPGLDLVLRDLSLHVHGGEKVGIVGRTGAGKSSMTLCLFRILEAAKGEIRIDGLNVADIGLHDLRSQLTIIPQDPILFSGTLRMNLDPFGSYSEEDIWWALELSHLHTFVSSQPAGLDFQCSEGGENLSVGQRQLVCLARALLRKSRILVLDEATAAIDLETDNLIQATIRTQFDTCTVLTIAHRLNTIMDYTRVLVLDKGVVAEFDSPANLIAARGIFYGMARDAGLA
Sequence of ATP-binding cassette sub-family C member 2 (Q92887 whole entry): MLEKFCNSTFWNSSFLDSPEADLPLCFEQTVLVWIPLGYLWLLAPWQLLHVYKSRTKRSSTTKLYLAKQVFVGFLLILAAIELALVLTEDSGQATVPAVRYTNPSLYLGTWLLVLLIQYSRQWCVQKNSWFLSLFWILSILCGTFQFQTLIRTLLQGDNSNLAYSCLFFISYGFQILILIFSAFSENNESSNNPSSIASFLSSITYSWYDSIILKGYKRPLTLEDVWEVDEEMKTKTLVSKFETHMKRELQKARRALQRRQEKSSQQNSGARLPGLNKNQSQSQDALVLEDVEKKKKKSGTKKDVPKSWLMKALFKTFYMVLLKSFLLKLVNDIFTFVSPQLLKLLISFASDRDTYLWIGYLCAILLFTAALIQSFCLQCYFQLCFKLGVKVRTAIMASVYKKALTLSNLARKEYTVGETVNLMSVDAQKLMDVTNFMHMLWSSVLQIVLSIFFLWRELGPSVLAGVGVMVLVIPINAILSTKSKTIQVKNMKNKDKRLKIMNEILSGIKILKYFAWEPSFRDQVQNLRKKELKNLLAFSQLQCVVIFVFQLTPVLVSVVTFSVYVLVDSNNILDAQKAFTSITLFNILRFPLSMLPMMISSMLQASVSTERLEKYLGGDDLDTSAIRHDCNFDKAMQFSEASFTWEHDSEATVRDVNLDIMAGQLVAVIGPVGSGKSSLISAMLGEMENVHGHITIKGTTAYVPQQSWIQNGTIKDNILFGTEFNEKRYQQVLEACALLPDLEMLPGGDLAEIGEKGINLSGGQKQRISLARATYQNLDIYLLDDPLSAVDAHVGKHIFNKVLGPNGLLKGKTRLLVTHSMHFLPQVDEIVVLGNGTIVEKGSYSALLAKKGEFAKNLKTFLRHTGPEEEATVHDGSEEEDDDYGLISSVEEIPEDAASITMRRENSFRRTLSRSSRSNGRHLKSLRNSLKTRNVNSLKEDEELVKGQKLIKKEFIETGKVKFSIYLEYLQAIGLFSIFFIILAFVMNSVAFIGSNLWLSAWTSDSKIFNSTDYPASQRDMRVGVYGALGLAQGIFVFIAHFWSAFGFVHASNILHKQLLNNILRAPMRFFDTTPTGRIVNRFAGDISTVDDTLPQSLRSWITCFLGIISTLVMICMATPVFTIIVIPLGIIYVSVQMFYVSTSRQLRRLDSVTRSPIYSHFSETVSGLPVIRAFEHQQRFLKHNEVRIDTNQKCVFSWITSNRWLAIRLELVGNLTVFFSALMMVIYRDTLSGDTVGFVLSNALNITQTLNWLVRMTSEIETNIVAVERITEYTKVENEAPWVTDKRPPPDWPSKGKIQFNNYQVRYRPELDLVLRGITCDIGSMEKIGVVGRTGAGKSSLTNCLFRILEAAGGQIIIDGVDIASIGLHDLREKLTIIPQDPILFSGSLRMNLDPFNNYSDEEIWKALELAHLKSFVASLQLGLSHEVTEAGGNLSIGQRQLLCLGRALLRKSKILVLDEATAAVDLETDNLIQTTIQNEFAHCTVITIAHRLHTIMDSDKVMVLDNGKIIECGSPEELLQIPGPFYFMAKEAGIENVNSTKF

Compound: CCc1oc2ccccc2c1C(=O)c1cc(Br)c(O)c(Br)c1 [BENZBROMARONE]
- AUC at 24 h [1]: 45 µM·h
- Ratio [2]: 0.107
- concentration at 24 h [3]: 1880 nM
- Ratio [4]: 0.11
- pIC50 [5]: 4.38
- Ratio [6]: 0.045
- pIC50 [7]: < 3.88
- pIC50 [8]: 4.77

Compound: CO[C@H]1/C=C/O[C@@]2(C)Oc3c(C)c(O)c4c(O)c(c(/C=N/N5CCN(C)CC5)c(O)c4c3C2=O)NC(=O)/C(C)=C\C=C\[C@H](C)[C@H](O)[C@@H](C)[C@@H](O)[C@@H](C)[C@H](OC(C)=O)[C@@H]1C [RIFAMPIN]
- Ratio [13]: 0.054
- AUC at 24 h [14]: 89.4 µM·h
- pIC50 [5]: 4.28
- Ratio [15]: 0.07
- Ratio [16]: 0.147
- pIC50 [7]: 4.16
- pIC50 [8]: 4.38
- concentration at 24 h [17]: 3730 nM
- Ratio [18]: 0.089

Compound: COc1ccccc1Oc1c(NS(=O)(=O)c2ccc(C(C)(C)C)cc2)nc(-c2ncccn2)nc1OCCO [BOSENTAN]
- Ratio [19]: 0.032
- AUC at 12 h [20]: 16.2 µM·h
- pIC50 [7]: 4.38
- pIC50 [8]: 4.66
- Css [21]: 1347 nM
- pIC50 [12]: 4.64
- Ratio [22]: 0.059
- Ratio [23]: 0.061

Second part, led by results:

- concentration at 12 h [9]: 4350 nM
- AUC at 12 h [10]: 52.2 µM·h
- pIC50 [5]: < 3.88
- pIC50 [7]: < 3.88
- pIC50 [8]: < 3.88
Compound: CC(C)CN(C[C@@H](O)[C@H](Cc1ccccc1)NC(=O)O[C@H]1CCOC1)S(=O)(=O)c1ccc(N)cc1
- Ratio [11]: 0.097
- pIC50 [12]: 4.35

- AUC at 24 h [24]: 8.71 µM·h
- pIC50 [5]: < 3.88
- pIC50 [7]: < 3.88
- pIC50 [8]: 5.57
- concentration at 24 h [25]: 363 nM
- Ratio [26]: 0.134
Compound: O=C(Nc1cccc2c(=O)cc(-c3nnn[nH]3)oc12)c1ccc(OCCCCc2ccccc2)cc1
- pIC50 [12]: 5.53
- Ratio [27]: 0.122
